In patent publication US20230087994A1, “TARGETED BIFUNCTIONAL DEGRADERS” (YALE UNIVERSITY, priority 2019, published 2023):
One block for each compound: values may come before it. Square brackets hold non-standard residues; d marks the D form. Peptide text beside a SMILES is read from it. * marks the point of attachment. Sta = CC(C)C[C@H](N)[C@@H](O)CC(=O)O; Isovaleryl = CC(C)CC(=O)*; Nle = CCCC[C@H](N)C(=O)O

Experiments:
[1] = test system: HepG2 cells; test: MIF-GN3-mediated endocytosis of fluorescently labeled human MIF by HepG2 cells; conditions: 100 nM MIF, 200 nM MIF-GN3; FIG. 132
Procedure: Human MIF protein was fluorescently labeled with Alexa 488 NHS ester, then incubated with HepG2 cells in the presence of varying levels of MIF-GN3.
Next, inhibitors of various endocytic pathways were utilized to determine if MIF-GN3 mediates MIF endocytosis in a manner consistent with ASGPR (FIG. 132).

[2] = test system: HepG2 cells; test: DNP-GN3-mediated endocytosis of fluorescently labeled α-DNP antibody by adherent HepG2 cells; format: cell-based, human; conditions: DNP-GN3-mediated uptake; FIG. 89
Procedure: It was next explored whether DNP-GN3 mediates the endocytosis of fluorescently labeled α-DNP antibody.
To explore the cellular mechanism of antibody uptake, cells were treated with chemical inhibitors of several endocytic pathways (FIG. 89).

[3] = test system: HepG2 cells; test: Degradation of α-DNP antibody endocytosed via DNP-AF3 in HepG2 cells (PAGE, 50 kDa/25 kDa band ratio) and effect of protease inhibitors; format: cell-based, human; conditions: for inhibition of α-DNP antibody degradation, triplicate: 12 hours, FIG. 117; for inhibition of degradation of α-DNP antibody, repeat with selected conditions: 80 μM leupeptin, 10 and 100 μM ALLN, 15 μM pepstatin, FIG. 118, leupeptin not significant (p=0.0504); for toxicity to cells: pepstatin 5 μM after 24 hours, AEBSF 100 μM, ALLN 100 μM by 24 hours
From the text: First, reducing conditions were used to visualize antibody degradation via PAGE gel.

[4] = target: T1, human MIF (Homo sapiens, UniProt P14174); test: Depletion of human MIF from cell culture supernatant (sandwich ELISA); format: cell-based; design: host or cells: exogenous protein added to cell culture; conditions: for depletion of MIF from cell culture supernatant / depletion of human MIF from cell culture supernatant: human MIF 100 nM; for depletion of MIF from cell culture supernatant: MIF-AF2 at 40 nM, 200 nM, and 1 μM, FIG. 129; for depletion of human MIF from cell culture supernatant: FIG. 128A
T1 sequence (P14174 2-115 limits assumed): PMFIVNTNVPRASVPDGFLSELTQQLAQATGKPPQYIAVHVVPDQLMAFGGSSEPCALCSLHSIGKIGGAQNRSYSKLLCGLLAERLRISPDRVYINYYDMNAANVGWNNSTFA
Procedure: The ability of bifunctional MIF-binding molecules to mediate the depletion of human MIF from cell culture was investigated. In these assays, human MIF was present at a concentration of 100 nM, and a sandwich ELISA assay was utilized to measure the concentration of human MIF remaining in the cell culture supernatant. The closely related bifunctional molecules MIF-GN3, MIF-PEG2-GN3, and MIF-PEG4-GN3 were used, as well as the structurally dissimilar molecule MIF-NVS-PEG3-GN3. […] Based on the ease of its synthesis and its efficacy in this experiment, MIF-GN3 was utilized for further studies. It was next investigated whether the MIF inhibitor 3w mediates MIF depletion from cell culture supernatant. […] When cells were treated with 3w, no depletion of exogenous MIF protein was observed after 24 hours (FIG. 128B).

[5] = single replicate, FIG. 116, leupeptin 20 and 80, E64 50 and 10 μM, antipain 50 and 100 μM, aprotinin 400 or 800 nM, PMSF 100 or 500 μM, AEBSF 10 μM, ALLN 10 μM

Compound: CO/C1=C\C(C)=C\[C@@H](C)[C@@H](O)[C@@H](C)C/C(C)=C/C=C/[C@H](OC)[C@@H]([C@@H](C)[C@@H](O)[C@H](C)[C@@]2(O)C[C@@H](O)[C@H](C)[C@@H](C(C)C)O2)OC1=O [bafilomycin, Bafilomycin]
effect of endocytic pathway inhibitors on MIF-GN3-mediated MIF endocytosis [1]: near background levels
effect of endocytic pathway inhibitors on intracellular fluorescence [2]: significantly decreased

Compound: CCCC[C@@H](C=O)NC(=O)[C@H](CC(C)C)NC(=O)[C@H](CC(C)C)NC(C)=O [ALLN] (Ac-Leu-Leu-[Nle]-aldehyde)
inhibition of α-DNP antibody degradation, initial screen ([3]; 100 μM, 12 hour time point): strong inhibition
inhibition of α-DNP antibody degradation, triplicate [3]: appeared effective
inhibition of α-DNP antibody degradation, initial screen [3, 5]: not active

Compound: Aprotinin
inhibition of α-DNP antibody degradation, triplicate [3]: did not significantly inhibit
inhibition of α-DNP antibody degradation, initial screen [3, 5]: not effective

Compound: CCN(CC)CCCC(C)Nc1ccnc2cc(Cl)ccc12 (centres unmarked) [chloroquine, Chloroquine]
effect of endocytic pathway inhibitors on MIF-GN3-mediated MIF endocytosis [1]: near background levels
effect of endocytic pathway inhibitors on intracellular fluorescence [2]: significantly decreased

Compound: CC(C)C[C@H](NC(=O)[C@H]1O[C@@H]1C(=O)O)C(=O)NCCCCN=C(N)N [Compound E64, E64]
inhibition of degradation of α-DNP antibody, repeat with selected conditions [3]: inhibited degradation
inhibition of α-DNP antibody degradation, triplicate [3]: inhibit α-DNP antibody degradation at all concentrations tested
inhibition of α-DNP antibody degradation, initial screen [3, 5]: effective

Compound: O=S(=O)(F)Cc1ccccc1 [PMSF, Phenylmethylsulfonyl fluoride]
inhibition of α-DNP antibody degradation, triplicate [3]: did not significantly inhibit
inhibition of α-DNP antibody degradation, initial screen [3, 5]: not effective

molar equivalents of MIF protein depleted ([4]; 40 nM): 2.08 molar equivalents
human MIF protein removed ([4]; 40 nM (4.0 pmol of molecule)): 8.32 pmol
removal of MIF present in the cell culture supernatant ([4]; 40 nM (4.0 pmol of molecule)): 83.2%
Compound: O=C(CCOCC(COCCC(=O)NCCOCCOCCOCCOC[C@]12CO[C@H](O1)[C@H](NC(=O)C(F)(F)F)[C@@H](O)[C@H]2O)(COCCC(=O)NCCOCCOCCOCCOC[C@]12CO[C@H](O1)[C@H](NC(=O)C(F)(F)F)[C@@H](O)[C@H]2O)NC(=O)CCCOc1ccc2nc(-c3cn(-c4ccc(O)c(F)c4)nn3)ccc2c1)NCCOCCOCCOCCOC[C@]12CO[C@H](O1)[C@H](NC(=O)C(F)(F)F)[C@@H](O)[C@H]2O [MIF-AF3]

depletion of MIF from the cell culture supernatant ([4]; 200 nM or 1 (μM), after 48 hours): ~100%
depletion of MIF from cell culture supernatant [4]: effective at depleting MIF
Compound: O=C(CCOCC(COCCC(=O)NCCOCCOCCOCCOC[C@]12CO[C@H](O1)[C@H](NC(=O)C(F)(F)F)[C@@H](O)[C@H]2O)NC(=O)CCCOc1ccc2nc(-c3cn(-c4ccc(O)c(F)c4)nn3)ccc2c1)NCCOCCOCCOCCOC[C@]12CO[C@H](O1)[C@H](NC(=O)C(F)(F)F)[C@@H](O)[C@H]2O [MIF-AF2]

Compound: C=C1[C@@H](C)[C@H]2[C@H](Cc3ccccc3)NC(=O)[C@]23[C@H](OC(C)=O)/C=C/[C@@](C)(O)C(=O)[C@@H](C)C/C=C/[C@H]3[C@@H]1O [cytochalasin D]
effect of endocytic pathway inhibitors on intracellular fluorescence [2]: did not significantly decrease

Compound: Cl.N [ammonium chloride]
effect of endocytic pathway inhibitors on MIF-GN3-mediated MIF endocytosis [1]: near background levels

Compound: CC(C)C[C@H](NC(=O)[C@@H](O)[C@H](N)Cc1ccccc1)C(=O)O [Bestatin]
inhibition of α-DNP antibody degradation, triplicate [3]: did not significantly inhibit
inhibition of α-DNP antibody degradation, initial screen [3, 5]: not effective

Compound: OC[C@H]1O[C@@](CO)(O[C@H]2O[C@H](CO)[C@@H](O)[C@H](O)[C@H]2O)[C@@H](O)[C@@H]1O [sucrose]
effect of endocytic pathway inhibitors on MIF-GN3-mediated MIF endocytosis [1]: near background levels
effect of endocytic pathway inhibitors on intracellular fluorescence [2]: significantly decreased

Compound: CC(=O)NC1C(OCCOCCOCCNC(=O)CCOCC(COCCC(=O)NCCOCCOCCOC2OC(CO)C(O)C(O)C2NC(C)=O)(COCCC(=O)NCCOCCOCCOC2OC(CO)C(O)C(O)C2NC(C)=O)NC(=O)CNC(=O)COCCOCCOCCOCCNC(=O)CCCOc2ccc3nc(-c4cn(-c5ccc(O)c(F)c5)nn4)ccc3c2)OC(CO)C(O)C1O (centres unmarked) [MIF-PEG4-GN3]
depletion of human MIF from cell culture supernatant ([4]; 24 hours): effective at mediating the depletion of human MIF

Compound: CC(=O)NC1C(OCCOCCOCCNC(=O)CCOCC(COCCC(=O)NCCOCCOCCOC2OC(CO)C(O)C(O)C2NC(C)=O)(COCCC(=O)NCCOCCOCCOC2OC(CO)C(O)C(O)C2NC(C)=O)NC(=O)CNC(=O)COCCOCCNC(=O)CCCOc2ccc3nc(-c4cn(-c5ccc(O)c(F)c5)nn4)ccc3c2)OC(CO)C(O)C1O (centres unmarked) [MIF-PEG2-GN3]
depletion of exogenous MIF protein from supernatant ([4]; 24 hours, FIG. 128B): mediated MIF depletion across a range of concentrations
depletion of human MIF from cell culture supernatant ([4]; 24 hours): effective at mediating the depletion of human MIF

Compound: CC(C)CC(=O)N[C@H](C(=O)N[C@H](C(=O)N[C@@H](CC(C)C)[C@@H](O)CC(=O)N[C@@H](C)C(=O)N[C@@H](CC(C)C)[C@@H](O)CC(=O)O)C(C)C)C(C)C [Pepstatin] (Isovaleryl-VV[Sta]A[Sta]-OH)
inhibition of degradation of α-DNP antibody, repeat with selected conditions [3]: did not
inhibition of α-DNP antibody degradation, triplicate [3]: did not significantly inhibit
toxicity to cells [3]: toxic to cells
inhibition of α-DNP antibody degradation, initial screen [3, 5]: not effective

Compound: CC(=O)N[C@@H](CC(C)C)C(=O)N[C@@H](CC(C)C)C(=O)N[C@H](C=O)CCCNC(=N)N [leupeptin, Leupeptin]
inhibition of degradation of α-DNP antibody, repeat with selected conditions [3]: inhibited degradation
inhibition of α-DNP antibody degradation, triplicate [3]: inhibit α-DNP antibody degradation at all concentrations tested
inhibition of α-DNP antibody degradation, initial screen [3, 5]: effective

Compound: Cl.NCCc1ccc(S(=O)(=O)F)cc1 [AEBSF, 4-(2-aminoethyl)benzeneulfonyl fluoride hydrochloride]
inhibition of α-DNP antibody degradation, triplicate [3]: did not significantly inhibit
toxicity to cells [3]: toxic to cells
inhibition of α-DNP antibody degradation, initial screen [3, 5]: not effective

Compound: CCN(c1nc(N)c(C(=O)NC(=N)N)nc1Cl)C(C)C [EIPA]
effect of endocytic pathway inhibitors on MIF-GN3-mediated MIF endocytosis [1]: significantly inhibited uptake
effect of endocytic pathway inhibitors on intracellular fluorescence [2]: did not significantly decrease

Compound: CC(=O)NC1C(OCCOCCOCCNC(=O)CCOCC(COCCC(=O)NCCOCCOCCOC2OC(CO)C(O)C(O)C2NC(C)=O)(COCCC(=O)NCCOCCOCCOC2OC(CO)C(O)C(O)C2NC(C)=O)NC(=O)CNC(=O)COCCOCCOCCn2cc(COCCOCCOc3ccc(N4Cc5ccc(O)cc5OC4=O)cc3)nn2)OC(CO)C(O)C1O (centres unmarked) [MIF-NVS-PEG3-GN3]
depletion of human MIF from cell culture supernatant ([4]; 24 hours): effective at mediating the depletion of human MIF

Compound: CC[C@@]1([C@@H]2O[C@@H]([C@H]3O[C@@](O)(CO)[C@H](C)C[C@@H]3C)C[C@@H]2C)CC[C@H]([C@]2(C)CC[C@]3(C[C@H](O)[C@@H](C)[C@@H]([C@@H](C)[C@@H](OC)[C@H](C)C(=O)O)O3)O2)O1 [monensin, Monensin]
effect of endocytic pathway inhibitors on MIF-GN3-mediated MIF endocytosis [1]: near background levels
effect of endocytic pathway inhibitors on intracellular fluorescence [2]: significantly decreased

depletion of MIF from cell culture supernatant [4]: not effective
Compound: O=C(CCCOc1ccc2nc(-c3cn(-c4ccc(O)c(F)c4)nn3)ccc2c1)NCCOCCC(=O)NCCOCCOCCOCCOC[C@]12CO[C@H](O1)[C@H](NC(=O)C(F)(F)F)[C@@H](O)[C@H]2O [MIF-AF1]
